Like-named read-outs stand apart in the source and are kept apart here.
What was measured:
human keratinocytes [1] = type: cell-based
Method: A second test, through the determination of the vitality of the cells using the MTT method, enables evaluation of the total damage suffered by the cells (in the absence of and following oxidative stress) and the protective effect produced by the substance tested in different concentrations.
Before and following exposure to UV rays, an MTT test is carried out to evaluate the toxic impact on the cell energetic system (mitochondrions) compared with cells not protected from oxidative stress a cells not exposed to stress. The MTT test is simple, accurate and gives reproducible results. This method, originally developed by Mossman […], is based on a yellow substance in solution. The mitochondrial dehydrogenize of live cells is able to cut the tetrazolium ring causing the formation of insoluble purple coloured salts. The crystals can de dissolved in acidified isopropanol and the purple solution formed can be spectrophotometrically dosed. An increase/decrease in number of the live cells can be evaluated as corresponding to the increase or decrease in the optical absorption due to formazano salts, giving a quantification of the global cytotoxic event.
(§1) • Control negative (C−): cells not treated • Control positive (C+): cells exposed to UV without protective treatment • Samples: • cells exposed to UV in the presence of protective substances: • Vitamin C 0.1 mg/ml (anti-oxidant of comparison) • SOL.—Solution 20% dimethyl sulfone
Cellular vitality as evaluated in the absence of oxidative stress (UV−) and after 5 minutes of exposure to […]
Absorption values (O.D) at 540 nm (in proportion to the number of cells). Evaluation of cellular vitality in the absence of oxidative stress

human keratinocytes [2] = experiment: Dosage of ROS (DCF fluorescence) after UV-induced oxidative stress; type: cell-based; details: for anti-radical protection percentage / fluorescence, directly proportional to the quantity of ROS (average value): after 5 minutes exposure to UV
Method: The substance to be tested was diluted in a salt solution to the final concentrations required. The dichlorofluorescein acetate (DCF) was diluted apart in a special buffer. The DCF reacts with the free radicals if present giving rise to a fluorescent derivative, and the fluorometry reading gives a quantity related to the presence of this substance in the cells analyzed. A sufficient number of cells (30,000 cells/well) is sown in the wells of a […]. After a pre-incubation period overnight with the different sample concentrations, the culture medium is sucked out of the wells and replaced with 500 μl of DCF solution. The plates are placed in a CO2 thermo regulator at 37° C. to incubate for 15 minutes. At this point the DCF solution is discarded. After a 5 minute period of exposure to UV rays, the oxidative stress is interrupted, and the fluorometry reading taken. The lamp used in the experiments reproduces the solar spectrum with a constant UVA emission field of between 315 and 400 nm. The emission of UVB is appropriately shielded to avoid direct cytotoxic damage to the cell cultures. The plate containing the cells is irradiated at room temperature with an intensity of 1.7 mW/cm^2 of UVA […].
Reading of the fluorometry is carried out at the excitation wave length of 485 nm and emission of 530 nm directly on the plates (Toxicol. Letters 1997-93: 47-54).
as §1
The results are given in terms of fluorescence, that are directly proportional to the quantity of ROS
The anti-radical protection percentage offered by the substance is calculated using the following formula: […]

For CS(C)(=O)=O [MSM SOL. 20%, dimethyl sulfone], the “cellular vitality, absorption value at 540 nm (average value)” value (from here on “cellular vitality, absorption value”) (human keratinocytes [1]; 0.003 mg/ml, after 5 minutes exposure to UV (UV+)) was 3.020 O.D, the “cellular vitality, absorption value” value (human keratinocytes [1]; 0.01 mg/ml, after 5 minutes exposure to UV (UV+)) was 2.977 O.D and the “cellular vitality, absorption value” value (human keratinocytes [1]; 0.03 mg/ml, after 5 minutes exposure to UV (UV+)) was 2.940 O.D. For the same molecule, the “cellular vitality, absorption value” value (human keratinocytes [1]; 0.09 mg/ml, after 5 minutes exposure to UV (UV+)) was 2.987 O.D, the “cellular vitality, absorption value” value (human keratinocytes [1]; 0.28 mg/ml, after 5 minutes exposure to UV (UV+)) was 2.832 O.D and the “cellular vitality, absorption value” value (human keratinocytes [1]; 0.83 mg/ml, after 5 minutes exposure to UV (UV+)) was 2.838 O.D. The “cellular vitality, absorption value” value (human keratinocytes [1]; 2.5 mg/ml, after 5 minutes exposure to UV (UV+)) was 2.777 O.D, the “cytoprotective activity: cellular vitality following exposure to UV radiation” value (human keratinocytes [1]; concentration between 0.003 and 2.5 mg/ml, versus non-treated keratinocytes) was “cellular vitality of treated Keratinocytes is greater compared with non-treated Keratinocytes” and the anti-radical protection percentage (human keratinocytes [2]; 0.003 mg/ml) was 41.2%. For the same molecule, the “fluorescence, directly proportional to the quantity of ROS (average value)” value (from here on “fluorescence, directly proportional”) (human keratinocytes [2]; 0.003 mg/ml) was 17820, the anti-radical protection percentage (human keratinocytes [2]; 0.01 mg/ml) was 37.5% and the “fluorescence, directly proportional” value (human keratinocytes [2]; 0.01 mg/ml) was 18887. The anti-radical protection percentage (human keratinocytes [2]; 0.03 mg/ml) was 34.8%, the “fluorescence, directly proportional” value (human keratinocytes [2]; 0.03 mg/ml) was 19686 and the anti-radical protection percentage (human keratinocytes [2]; 0.09 mg/ml) was 43.7%. The “fluorescence, directly proportional” value (human keratinocytes [2]; 0.09 mg/ml) was 17117, the anti-radical protection percentage (human keratinocytes [2]; 0.28 mg/ml) was 38.3% and the “fluorescence, directly proportional” value (human keratinocytes [2]; 0.28 mg/ml) was 18675. The anti-radical protection percentage (human keratinocytes [2]; 0.83 mg/ml) was 44.6%, the “fluorescence, directly proportional” value (human keratinocytes [2]; 0.83 mg/ml) was 16848 and the anti-radical protection percentage (human keratinocytes [2]; 2.5 mg/ml) was 41.4%. The “fluorescence, directly proportional” value (human keratinocytes [2]; 2.5 mg/ml) was 17782 and the “antioxidant activity: presence of ROS in keratinocyte cultures subjected to oxidative stress” value (human keratinocytes [2]; concentration between 0.003 and 2.5 mg/ml) was “significantly reduces the presence of reactive oxygen species (ROS)”.
O=C1O[C@H]([C@@H](O)CO)C(O)=C1O [VIT C, Vitamin C, reference compound] was tested, and the “cellular vitality, absorption value” value (human keratinocytes [1]; 0.1 mg/ml, after 5 minutes exposure to UV (UV+)) was 2.904 O.D, the “cellular vitality, absorption value” value (human keratinocytes [1]; human, 0.1 mg/ml) was 2.977 O.D and the “fluorescence, directly proportional” value (human keratinocytes [2]; 0.1 mg/ml) was 20837.
